In US7939623B2, “Composition containing flavan compound” (Toyo Shinyaku Co., Ltd., priority 2004, dated 2011):

Assay: Evaluation for coagulation-precipitation of flavan compounds and proteins (peptides), Reference Example
Format: physicochemical
Design: key: +: The precipitation was remarkably observed; ±: The precipitation was slightly observed; −: Not observed
Details: room temperature, one week
Description: Then, an aqueous solution of each of the pine bark extract, the proanthocyanidin dry powder, and epigallocatechin (produced by Roche Vitamins Japan K.K.) was prepared such that a final concentration was 0.2 wt %, as a first liquid. Separately, collagen (having an average molecular weight of 300 thousands: produced by KOKEN CO., LTD), Nippi Peptide PA-100 (having an average molecular weight of 10,000: produced by Nippi, incorporated), Collagen peptide DS (having an average molecular weight of 7,000: produced by Kyowa. […] At room temperature, 1 mL of first liquid and 1 mL of second liquid were mixed. The resultant liquid mixture was allowed to stand at room temperature for one week, and it was visually observed whether or not precipitation or suspension was caused in the liquid mixture.

[1] = second liquid: collagen average MW 300,000
[2] = second liquid: collagen peptide average MW 1,000
[3] = second liquid: collagen peptide average MW 3,000
[4] = second liquid: collagen peptide average MW 5,000
[5] = second liquid: collagen peptide average MW 7,000
[6] = second liquid: collagen peptide average MW 10,000

Precipitation (0.2 wt % first liquid 1 mL + 1 mL 10.0 wt % second liquid: glycine (MW 75), visual): − | Precipitation [1]: + | Suspension [1]: + | Precipitation [2]: − | Suspension [2]: − | Precipitation [3]: − | Suspension [3]: − | Precipitation [4]: − | Suspension [4]: − | Precipitation [5]: − | Suspension [5]: − | Precipitation [6]: ± | Suspension [6]: + | Suspension (second liquid: glycine (MW 75)): −
Substance: Epigallocatechin gallate
